Test results reported in patent US20110184018A1, “METHOD FOR TREATING PERIPHERAL NEUROPATHIC PAIN” (LOHOCLA RESEARCH CORPORATION, priority 2005, published 2011).

Columns and labels:
[1] = test system: primary cultures of rat cerebellar granule cells; assay: Glutamate-induced excitotoxic cell death; assay type: cell-based; details: 100 micromolar glutamate
Protocol: Glutamate Excitotoxicity. Primary cultures of cerebellar granule cells were prepared from 7-day-old Sprague-Dawley rats. The cultures were maintained in plates containing 24 wells (volume of 1 mL/well). Culture density was about 1.5×10^6 cells/mL. Cell viability was assayed after 7 or 8 days in culture by the production of fluorescein, formed from fluorescein diacetate by esterases present in living cells. Cells were washed with magnesium ion-free Locke's buffer, and then exposed to 100 μM glutamate alone, glutamate and 10 μM glycine, or each of these conditions in the presence of 100 μM DCUKA or 100 μM DCUK-OMe at 25° C. for 30 minutes. DCUKA and DCUK-OMe were added in 2-μl aliquots to yield a final DMSO concentration of 0.2%. […] Fluorescence of each well was measured on a Perkin-Elmer HTS7000 plate reader (excitation 485 nm; emission 535 nm; 16 measurements per well) with optimal gain settings. For each 24-well plate, the fluorescence of one control culture well (i.e., not exposed to glutamate) was automatically set to the highest fluorescence value, and fluorescence values were determined in all other wells with the same gain settings. Fluorescence measurements in all 24 wells were normalized to the control culture and expressed as a percentage of this value. Data are expressed as percentage of cell death (100-percentage of control). […]

[2] = test system: rats following spinal nerve ligation (SNL); assay: Thermal and tactile hyperalgesia after spinal nerve ligation (SNL); assay type: in vivo, rat
Protocol: FIG. 7 illustrates the scheme for testing the DCUK ethyl ester in neuropathic pain models. In FIG. 7 graphs showing attenuation of tactile (Panel A) and thermal (Panel B) hyperalgesia in animals following spinal nerve ligation (SNL) are provided. DCUK-OEt (30 or 100 mg/kg) was administered at the time indicated by the arrow. Hyperalgesic responses were followed for the next 180 minutes. The shaded area represents the area of hyperalgesia produced by SNL. BL on the X-axis represents the baseline response of animals prior to spinal nerve ligation. SNL represents the response of the animals after spinal nerve ligation and prior to receiving the DCUKA ethyl ester.
Spinal Nerve Ligation and Sham Surgery. Anesthesia was maintained with 0.5% halothane in oxygen. After surgical preparation of the rats, a 2-cm paraspinal incision was made at the level L4-S2. The unilateral L5 and L6 spinal nerves were exposed and tightly ligated distal to the dorsal root ganglia by using 4-0 silk suture. The incisions were closed, and animals were allowed to recover. Sham-operated control rats were prepared in an identical manner without L5/L6 nerve ligation. […] Separate groups of animals were used in tests for thermal and tactile hypersensitivity.
Tactile Hypersensitivity Test and Evaluation. Animals were placed in a suspended plastic chamber with a wire mesh platform and allowed to habituate for 15 minutes. Tactile hypersensitivity was determined by measuring paw withdrawal threshold in response to probing the plantar surface of the left hind paw with a series of 8 calibrated von Frey filaments (0.40, 0.70, 1.20, 2.00, 3.63, 5.50, 8.50, and 15.1 g). Measurements were taken before surgery and before and after administration of drug or vehicle. Withdrawal threshold was determined by sequentially increasing and decreasing stimulus intensity (“up and down” method), analyzed by using a Dixon nonparametric test, and expressed as the paw withdrawal threshold in gram force values. All studies were carried out 7 days after spinal nerve ligation (SNL).
Thermal Hypersensitivity Test (Radiant Heat Paw Withdrawal Test). Rats were placed in clear plastic chambers on a glass surface and were habituated for 15 minutes before testing. Thermal sensitivity was measured by using paw withdrawal latency to a radiant heat stimulus. A radiant heat source (i.e., infrared) was activated with a timer and focused onto the plantar surface of the left hind paw of a rat, and the latency to paw withdrawal was measured. A motion detector that halted both lamp and timer when the paw was withdrawn determined paw withdrawal latency. The latencies were measured before surgery and before and after drug or vehicle administration. A maximum cutoff of 33 seconds was used to prevent tissue damage. […]

O=C(O)c1cc(NC(=O)N(c2ccccc2)c2ccccc2)c2c(Cl)cc(Cl)cc2n1 [DCUKA, N,N-diphenyl-4-ureido-5,7-dichloro-2-carboxyquinoline]
protection from glutamate-induced damage ([1]; 100 μM compound): completely protected
reduction of cell death ([1]; 10 micromolar compound): more than 50%

CCOC(=O)c1cc(NC(=O)N(c2ccccc2)c2ccccc2)c2c(Cl)cc(Cl)cc2n1 [DCUK-OEt, N,N-diphenyl-4-ureido-5,7-dichloro-2-carboxy quinoline ethyl ester]
normalization of thermal versus tactile hyperalgesia ([2]; 30 or 100 mg/kg): thermal hyperalgesia is normalized by administration of DCUKA ethyl ester to a greater extent than tactile hyperalgesia
inhibition of thermal hyperalgesia ([2]; i.p., 100 mg/kg): 75%
reduction of thermal hyperalgesia ([2]; oral, 200 mg/kg emulsion): about 70%
inhibition of thermal hyperalgesia ([2]; p.o., about 150 mg/kg): 45%
